Patent US11608335B2, “Somatostatin modulators and uses thereof” (CRINETICS PHARMACEUTICALS, INC., priority 2018, dated 2023)
Where two headings read alike, the source gives them in different places.

What was measured:
[1] = target: T1, human somatostatin receptor subtype 4 (Homo sapiens, UniProt P31391); test: cAMP assay for hSST4R (inhibition of cAMP via human SST4 receptor); type: cell-based; details: from inhibition of cAMP via human SST5 receptor and human SST4 receptor
T1 construct: expressed in transfected cells
T1 sequence (P31391 whole entry): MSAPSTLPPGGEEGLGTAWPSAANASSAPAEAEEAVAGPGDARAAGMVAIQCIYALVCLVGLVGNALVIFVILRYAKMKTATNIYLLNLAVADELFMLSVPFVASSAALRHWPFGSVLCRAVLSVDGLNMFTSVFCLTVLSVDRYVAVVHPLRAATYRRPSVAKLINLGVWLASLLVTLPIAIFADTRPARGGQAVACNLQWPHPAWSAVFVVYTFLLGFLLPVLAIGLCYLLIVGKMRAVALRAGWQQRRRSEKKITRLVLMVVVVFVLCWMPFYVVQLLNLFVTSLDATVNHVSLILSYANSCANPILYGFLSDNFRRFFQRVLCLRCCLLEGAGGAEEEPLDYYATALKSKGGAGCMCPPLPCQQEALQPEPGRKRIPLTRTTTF
Source text: cAMP Assay Protocol hSST4R:

[2] = target: human somatostatin receptor subtype 5 (Homo sapiens, UniProt P35346); test: cAMP assay for SST5R (inhibition of cAMP via human SST5 receptor); details: for Fold selectivity for SST5 vs SST2: SST5 over SST2, class symbols
Sequence of human somatostatin receptor subtype 5 (P35346 whole entry): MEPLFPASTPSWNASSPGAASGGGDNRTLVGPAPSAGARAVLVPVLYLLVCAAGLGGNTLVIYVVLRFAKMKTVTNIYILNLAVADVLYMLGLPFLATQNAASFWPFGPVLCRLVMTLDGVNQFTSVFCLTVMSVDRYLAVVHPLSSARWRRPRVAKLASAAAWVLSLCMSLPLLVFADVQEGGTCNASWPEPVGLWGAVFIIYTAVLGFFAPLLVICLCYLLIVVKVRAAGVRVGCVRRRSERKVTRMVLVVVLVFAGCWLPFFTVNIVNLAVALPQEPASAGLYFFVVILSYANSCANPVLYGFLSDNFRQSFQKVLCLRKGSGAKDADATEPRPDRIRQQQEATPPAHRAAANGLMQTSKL
Protocol: cAMP Assay Protocol for SST5R:
The cells are cultured at 37° C., 5% CO2 and 95% humidity. […] The cells are incubated for 20 minutes at 37° C. […] The cells are treated with 50 μL of lysis buffer (HRTF cAMP kit, Cisbio) for 30 minutes and then the lysate is diluted to 250 μL with assay buffer. The lysate is transferred to 384-well plates and cAMP detection and visualization antibodies are added and incubated for 1-24 hours at room temperature. The time-resolved fluorescent signal is read with a Tecan M1000Pro multiplate reader. The intracellular cAMP concentrations are calculated by regression to a standard curve and are plotted vs. the concentration of the compounds of the invention and the EC50 of the compounds are calculated using standard methods. All data manipulations are in GraphPad Prism v6 or v7.

[3] = target: T2, human somatostatin receptor subtype 2 (Homo sapiens, UniProt P30874); test: cAMP assay for SST2R (inhibition of cAMP via human SST2 receptor); type: cell-based; details: Table B, read-out: SST2 potency
T2 construct: expressed in transfected cells
T2 sequence (P30874 whole entry): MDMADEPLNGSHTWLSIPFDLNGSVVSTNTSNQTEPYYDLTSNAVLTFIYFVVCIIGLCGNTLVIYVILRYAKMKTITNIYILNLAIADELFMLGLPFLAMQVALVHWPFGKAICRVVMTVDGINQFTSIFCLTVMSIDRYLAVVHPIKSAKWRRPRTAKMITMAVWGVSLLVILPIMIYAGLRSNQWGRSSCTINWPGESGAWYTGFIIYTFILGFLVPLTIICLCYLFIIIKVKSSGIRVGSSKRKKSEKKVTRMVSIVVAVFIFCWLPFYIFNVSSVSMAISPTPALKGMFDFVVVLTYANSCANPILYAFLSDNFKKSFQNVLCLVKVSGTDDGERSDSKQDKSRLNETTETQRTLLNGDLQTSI
Source text: cAMP Assay Protocol for SST2R:

[4] = target: T3, human somatostatin receptor subtype 3 (Homo sapiens, UniProt P32745); test: cAMP assay for SST3R (inhibition of cAMP via human SST3 receptor); type: cell-based; details: from inhibition of cAMP via human SST5 receptor and human SST3 receptor
T3 construct: expressed in transfected cells
T3 sequence (P32745 whole entry): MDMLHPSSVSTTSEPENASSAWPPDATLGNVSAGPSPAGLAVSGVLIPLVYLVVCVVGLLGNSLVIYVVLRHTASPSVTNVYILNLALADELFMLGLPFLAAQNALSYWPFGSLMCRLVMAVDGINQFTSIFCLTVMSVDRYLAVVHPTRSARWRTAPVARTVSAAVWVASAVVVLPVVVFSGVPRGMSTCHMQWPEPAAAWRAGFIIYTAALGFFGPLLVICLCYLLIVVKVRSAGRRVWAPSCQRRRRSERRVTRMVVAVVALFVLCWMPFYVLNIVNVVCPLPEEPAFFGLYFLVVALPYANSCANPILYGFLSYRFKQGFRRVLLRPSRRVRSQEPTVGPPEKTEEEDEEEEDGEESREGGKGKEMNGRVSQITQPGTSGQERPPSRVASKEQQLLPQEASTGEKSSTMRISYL
Source text: cAMP Assay Protocol for SST3R:

[5] = read-out: SST5 potency, inhibition of cAMP via human SST5 receptor, Table B

Structure (SMILES)	Fold selectivity for SST5 vs SST4 [1] [fold]	EC50 [2] [nM]	EC50 [3] [nM]	Fold selectivity for SST5 vs SST2 [2]	EC50 [2, 5] [nM]	Fold selectivity for SST5 vs SST3 [4] [fold]
CC(N)C1CN(c2c(-c3cc(F)cc(C(F)(F)F)c3)cncc2-c2nc3cc(F)cc(F)c3[nH]2)C1 (centres unmarked) [Compound 1-71, 1-{1-[3-(4,6-difluoro-1H-1,3-benzodiazol-2-yl)-5-[3-fluoro-5-(trifluoromethyl)phenyl]pyridin-4-yl]azetidin-3-yl}ethan-1-amine]			> 1000	+++ (+++=≥500)	< 10	
Cn1c(-c2cncc(-c3cccc(C#N)c3)c2N2CC[C@H](N)C2)nc2cccc(Cl)c21 [Compound 2-76, 3-{4-[(3S)-3-aminopyrrolidin-1-yl]-5-(7-chloro-1-methyl-1H-1,3-benzodiazol-2-yl)pyridin-3-yl}benzonitrile]		< 10	100 to 1000	+++ (+++=≥500)	< 10	
CC1(N)CCN(c2c(-c3cccc(C#N)c3)cncc2-c2nc3cccc(F)c3[nH]2)C1 (centres unmarked) [Compound 2-13, 3-[4-(3-amino-3-methylpyrrolidin-1-yl)-5-(4-fluoro-1H-1,3-benzodiazol-2-yl)pyridin-3-yl]benzonitrile]		< 10	100 to 1000	+++ (+++=≥500)	< 10	
NCC1CN(c2c(-c3ccc4ccccc4c3)cncc2-c2nc3cc(F)cc(F)c3[nH]2)C1 [Compound 1-41, 1-{1-[3-(4,6-difluoro-1H-1,3-benzodiazol-2-yl)-5-(naphthalen-2-yl)pyridin-4-yl]azetidin-3-yl}methanamine]	8.8	100 to 1000				
Cc1c(F)ccc2nc(-c3cncc(-c4cc(F)cc(C#N)c4)c3N3CC[C@H](N)C3)[nH]c12 [Compound 2-86, 3-{4-[(3S)-3-aminopyrrolidin-1-yl]-5-(5-fluoro-4-methyl-1H-1,3-benzodiazol-2-yl)pyridin-3-yl}-5-fluorobenzonitrile]		< 10	100 to 1000	++ (++=100 to 499)	< 10	
Cc1cc(F)cc(-c2cncc(-c3nc4c(F)cc(F)cc4[nH]3)c2N2CC(CN)C2)c1 [Compound 1-7, 1-{1-[3-(4,6-difluoro-1H-1,3-benzodiazol-2-yl)-5-(3-fluoro-5-methylphenyl)pyridin-4-yl]azetidin-3-yl}methanamine]		< 10	> 1000	+++ (+++=≥500)	< 10	
CCn1c(-c2cncc(-c3cccc(C#N)c3)c2N2CC[C@H](N)C2)nc2c(F)cccc21 [Compound 2-143, 3-{4-[(3S)-3-aminopyrrolidin-1-yl]-5-(1-ethyl-4-fluoro-1H-1,3-benzodiazol-2-yl)pyridin-3-yl}benzonitrile]		< 10	100 to 1000	+++ (+++=≥500)	< 10	
Cn1c(-c2cncc(-c3ccc(F)c(C#N)c3)c2N2CC[C@H](N)C2)nc2c(Cl)cccc21 [Compound 2-131, 5-{4-[(3S)-3-aminopyrrolidin-1-yl]-5-(4-chloro-1-methyl-1H-1,3-benzodiazol-2-yl)pyridin-3-yl}-2-fluorobenzonitrile]		10 to 100	> 1000	+++ (+++=≥500)	10 to 100	
COc1ccnc2nc(-c3cncc(-c4ccc(F)c(C#N)c4)c3N3CC[C@](C)(N)C3)[nH]c12 [Compound 2-172, 5-{4-[(3S)-3-amino-3-methylpyrrolidin-1-yl]-5-{7-methoxy-1H-imidazo[4,5-b]pyridin-2-yl}pyridin-3-yl}-2-fluorobenzonitrile]		< 10	> 1000	+++ (+++=≥500)	< 10	
CCn1c(-c2cncc(-c3cc(F)cc(C#N)c3)c2N2CC[C@H](N)C2)nc2c(F)cccc21 [Compound 2-144, 3-{4-[(3S)-3-aminopyrrolidin-1-yl]-5-(1-ethyl-4-fluoro-1H-1,3-benzodiazol-2-yl)pyridin-3-yl}-5-fluorobenzonitrile]		< 10	> 1000	+++ (+++=≥500)	< 10	
NC(=O)c1cccc(-c2cncc(-c3nc4c(F)ccc(F)c4[nH]3)c2N2CC[C@H](N)C2)c1 [Compound 2-43, 3-{4-[(3S)-3-aminopyrrolidin-1-yl]-5-(4,7-difluoro-1H-1,3-benzodiazol-2-yl)pyridin-3-yl}benzamide]		10 to 100	> 1000	+++ (+++=≥500)	10 to 100	
N#Cc1cc(F)cc(-c2cncc(-c3nc4cc(F)cc(F)c4[nH]3)c2N2CC[C@H](N)C2)c1 [Compound 2-195, 3-{4-[(3S)-3-aminopyrrolidin-1-yl]-5-(4,6-difluoro-1H-1,3-benzodiazol-2-yl)pyridin-3-yl}-5-fluorobenzonitrile]			> 1000	+++ (+++=≥500)	< 10	
N#Cc1cc(-c2cncc(-c3nc4c(F)ccc(F)c4[nH]3)c2N2CC[C@H](N)C2)ccc1F [Compound 2-44, 5-{4-[(3S)-3-aminopyrrolidin-1-yl]-5-(4,7-difluoro-1H-1,3-benzodiazol-2-yl)pyridin-3-yl}-2-fluorobenzonitrile]		< 10	100 to 1000	+++ (+++=≥500)	< 10	
Cc1cccc2nc(-c3cncc(-c4ccnc(C#N)c4)c3N3CCC(C)(N)C3)[nH]c12 (centres unmarked) [Compound 2-123, 4-(3-amino-3-methylpyrrolidin-1-yl)-5-(4-methyl-1H-1,3-benzodiazol-2-yl)-[3,4′-bipyridine]-2′-carbonitrile]		< 10	10 to 100	+++ (+++=≥500)	< 10	

The next lines start with the values.

Fold selectivity for SST5 vs SST4 [1] [fold]	EC50 [2] [nM]	EC50 [3] [nM]	Fold selectivity for SST5 vs SST2 [2]	EC50 [2, 5] [nM]	Fold selectivity for SST5 vs SST3 [4] [fold]	Structure (SMILES)
323	< 10					Cc1c(F)ccc2nc(-c3cncc(-c4ccnc(C#N)c4)c3N3CC[C@](C)(N)C3)[nH]c12 [Compound 2-164, 4-[(3S)-3-amino-3-methylpyrrolidin-1-yl]-5-(5-fluoro-4-methyl-1H-1,3-benzodiazol-2-yl)-[3,4′-bipyridine]-2′-carbonitrile]
63	< 10	100 to 1000	+++ (+++=≥500)	< 10		Cc1cccc2nc(-c3cncc(-c4ccnc(C#N)c4)c3N3CC[C@](C)(N)C3)[nH]c12 [Compound 2-145, 4-[(3S)-3-amino-3-methylpyrrolidin-1-yl]-5-(4-methyl-1H-1,3-benzodiazol-2-yl)-[3,4′-bipyridine]-2′-carbonitrile]
18	< 10	100 to 1000	+++ (+++=≥500)	< 10	183	C[C@]1(N)CCN(c2c(-c3ccc(F)c(C#N)c3)cncc2-c2nc3cccc(C#N)c3[nH]2)C1 [Compound 2-171, 2-{4-[(3S)-3-amino-3-methylpyrrolidin-1-yl]-5-(3-cyano-4-fluorophenyl)pyridin-3-yl}-1H-1,3-benzodiazole-7-carbonitrile]
384	< 10	100 to 1000	+++ (+++=≥500)	< 10	>1000	CC(N)C1CN(c2c(-c3ccc(F)c(C#N)c3)cncc2-c2nc3cc(F)cc(F)c3[nH]2)C1 (centres unmarked) [Compound 1-65, 5-{4-[3-(1-aminoethyl)azetidin-1-yl]-5-(4,6-difluoro-1H-1,3-benzodiazol-2-yl)pyridin-3-yl}-2-fluorobenzonitrile]
56	< 10	100 to 1000	++ (++=100 to 499)	< 10		Cc1ccnc2[nH]c(-c3cncc(-c4cc(F)c(F)c(C#N)c4)c3N3CC[C@](C)(N)C3)nc12 [Compound 2-165, 5-{4-[(3S)-3-amino-3-methylpyrrolidin-1-yl]-5-{7-methyl-1H-imidazo[4,5-b]pyridin-2-yl}pyridin-3-yl}-2,3-difluorobenzonitrile]
	< 10	100 to 1000	+++ (+++=≥500)	< 10		N#Cc1cccc(-c2cncc(-c3nc4cccc(Br)c4[nH]3)c2N2CC[C@H](N)C2)c1 [Compound 2-57, 3-{4-[(3S)-3-aminopyrrolidin-1-yl]-5-(4-bromo-1H-1,3-benzodiazol-2-yl)pyridin-3-yl}benzonitrile]
	< 10	> 1000	+++ (+++=≥500)	< 10		CC(N)C1(C)CN(c2c(-c3cccc(F)c3)cncc2-c2nc3cc(F)cc(F)c3[nH]2)C1 (centres unmarked) [Compound 1-68, 1-{1-[3-(4,6-difluoro-1H-1,3-benzodiazol-2-yl)-5-(3-fluorophenyl)pyridin-4-yl]-3-methylazetidin-3-yl}ethan-1-amine]
	< 10	100 to 1000	+++ (+++=≥500)	< 10		Cc1cccc2nc(-c3cncc(-c4cccc(C#N)c4)c3N3CC[C@H](N)C3)[nH]c12 [Compound 2-80, 3-{4-[(3S)-3-aminopyrrolidin-1-yl]-5-(4-methyl-1H-1,3-benzodiazol-2-yl)pyridin-3-yl}benzonitrile]
	< 10	100 to 1000	++ (++=100 to 499)	< 10		N#Cc1cc(-c2cncc(-c3nc4cccc(C(F)(F)F)c4[nH]3)c2N2CC[C@H](N)C2)ccc1F [Compound 2-60, 5-{4-[(3S)-3-aminopyrrolidin-1-yl]-5-[4-(trifluoromethyl)-1H-1,3-benzodiazol-2-yl]pyridin-3-yl}-2-fluorobenzonitrile]
